Consider 6 molecules from EP4610269A1, “UROKINASE PLASMINOGEN ACTIVATOR SURFACE RECEPTOR (UPAR) LIGANDS FOR DIAGNOSTIC OR THERAPEUTIC USE” (3B Pharmaceuticals GmbH, priority 2024, dated 2025).

*1 amine or outer side, *2 acyl side, *3 side chain or, on linkers, in order; H or OH if unused. Where a SMILES comes first, the peptide text is derived from it. Bridges are numbered along the chain shown (N, C = ends). [ ]: non-standard residue; d: D form. The star is where a group is joined. DOTA = O=C(O)CN1CCN(CC(=O)O)CCN(CC(=O)*)CCN(CC(=O)O)CC1; Pro(trans-4-F) = O=C(O)[C@@H]1C[C@@H](F)CN1; Pro(4R-NH2) = N[C@H]1CN[C@H](C(=O)O)C1; Hyp = O=C(O)[C@@H]1C[C@@H](O)CN1; Pentanoyl(4-Me) = CC(C)CCC(=O)*; Cit = NC(=O)NCCC[C@H](N)C(=O)O; Butoxycarbonyl = CCCCOC(=O)*; X9 = OC[C@H](CS[*:1])N[*:2]; Api = NC1(C(=O)O)CCNCC1; Nva = CCC[C@H](N)C(=O)O; Pentanoyl = CCCCC(=O)*; Ahx = NCCCCCC(=O)O

The target of experiment [1] is T1, human uPAR (uPAR-Fc) (Homo sapiens, UniProt Q03405).
T1 construct: comprising amino acids Leu23-Arg303 according to UniProt entry Q03405.1; purchased R&D Systems 10378-UK-100
T1 sequence (Q03405 23-303): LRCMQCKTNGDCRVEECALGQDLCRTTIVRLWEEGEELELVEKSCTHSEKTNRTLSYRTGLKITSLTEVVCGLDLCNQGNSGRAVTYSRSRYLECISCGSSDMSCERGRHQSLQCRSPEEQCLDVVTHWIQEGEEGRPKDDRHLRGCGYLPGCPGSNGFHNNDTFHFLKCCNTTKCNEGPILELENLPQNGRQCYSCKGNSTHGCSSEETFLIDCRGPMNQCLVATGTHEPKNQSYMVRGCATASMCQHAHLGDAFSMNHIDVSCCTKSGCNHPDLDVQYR
In words: Surface plasmon resonance (SPR) assay, single cycle kinetics. Particulars: pKD category for uPAR SPR activity assay; uPAR-Fc on Protein A-Chip, 25°C; read-out: pKD CAT (converted). It counts as binding. The gist of the method: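 uPAR-Fc (Leu23-Arg303 extracellular domains, human IgG1 Fc) captured on Protein A chip to ~2000 RU; single-cycle kinetics at 25°C in HEPES running buffer pH 7.4 with 0.1% DMSO. KD from double-referenced sensorgrams fitted to 1:1 Langmuir model, reported as pKD.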
A general note: In SPR one partner is held on a chip, and binding of the other changes the refractive index at the surface.

In experiment [2] the target is T2, uPAR-expressing HEC-265 human endometrial adenocarcinoma cells (Homo sapiens, UniProt Q03405).
T2 construct: Cell surface uPAR-expressing HEC-265 human endometrial adenocarcinoma cells; host or cells: HEC-265
T2 sequence (Q03405 23-335): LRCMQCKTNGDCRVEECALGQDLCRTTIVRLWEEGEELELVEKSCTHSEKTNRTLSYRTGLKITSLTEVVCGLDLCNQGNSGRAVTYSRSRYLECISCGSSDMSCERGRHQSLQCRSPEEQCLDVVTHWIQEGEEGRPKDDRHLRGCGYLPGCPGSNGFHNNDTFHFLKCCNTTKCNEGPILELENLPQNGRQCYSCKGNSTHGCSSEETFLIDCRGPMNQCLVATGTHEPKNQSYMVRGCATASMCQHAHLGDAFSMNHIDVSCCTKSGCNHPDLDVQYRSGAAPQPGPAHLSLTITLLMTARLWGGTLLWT
In words: Competitive FACS binding assay. The note with it: pIC50 category of FACS binding. The gist of the method:
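HEC-265 cells incubated 1 h at 4 °C with 10 nM biotinylated uPAR peptide tracer plus increasing test compound, then stained with APC-streptavidin on ice. Median APC fluorescence by flow cytometry; 4PL fit gives pIC50.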
For orientation: A flow cytometer gives signals particle by particle.

In general, IC50 refers to the point on the concentration scale where inhibition reaches its midpoint. Regarding `CCCCC(=O)N[C@H]1CSSC[C@@H](C(N)=O)NC(=O)[C@H](CCC)NC(=O)[C@H]([C@@H](C)CC)NC(=O)[C@@H]2C[C@@H](O)CN2C(=O)[C@@H]2CCCN2C(=O)[C@H](Cc2ccccc2)NC(=O)[C@H](Cc2ccc(O)cc2)NC(=O)C2(CCN(C(=O)CN3CCN(CC(=O)O)CCN(CC(=O)O)CCN(CC(=O)O)CC3)CC2)NC(=O)[C@H]([C@@H](C)O)NC1=O` [UPAR-288, Pent-[Cys-Thr-Apc(DOTA)-Tyr-Phe-Pro-Hyp-Ile-Nva-Cys]-NH2] (Pentanoyl-CT[Api](DOTA)YFP[Hyp]I[Nva]C-NH2; disulfide 1-10), the Kd in experiment [1] was < 1.58 nM. Also, in experiment [2], the 50% inhibitory concentration (IC50) was ≤ 10 nM.

With `CCCCOC(=O)N[C@H]1CSSC[C@@H](C(N)=O)NC(=O)[C@H](CCC)NC(=O)[C@H]([C@@H](C)CC)NC(=O)[C@@H]2C[C@@H](F)CN2C(=O)[C@@H]2CCCN2C(=O)[C@H](Cc2ccccc2)NC(=O)[C@H](Cc2ccc(O)cc2)NC(=O)[C@H](CCCCNC(=O)CN2CCN(CC(=O)O)CCN(CC(=O)O)CCN(CC(=O)O)CC2)NC(=O)[C@H]([C@@H](C)O)NC1=O` [UPAR-289, Butoc-[Cys-Thr-Lys(DOTA)-Tyr-Phe-Pro-4Tfp-Ile-Nva-Cys]-NH2] (Butoxycarbonyl-CTK(DOTA)YFP[Pro(trans-4-F)]I[Nva]C-NH2; disulfide 1-10), the Kd in experiment [1] was < 1.58 nM. Besides, the half-maximal inhibitory concentration (IC50) in experiment [2] was ≤ 10 nM.

Take `CC[C@H](C)[C@@H]1NC(=O)[C@H](C)NC(=O)[C@@H]2CCCN2C(=O)[C@H](Cc2ccccc2)NC(=O)[C@H](Cc2ccc(O)cc2)NC(=O)[C@H](CCC(N)=O)NC(=O)[C@H](CCCNC(=N)N)NC(=O)[C@@H](NC(=O)[C@H](CC(C)C)NC(=O)[C@H](CC(=O)O)NC(C)=O)CSSC[C@@H](C(N)=O)NC(=O)[C@H](CC(C)C)NC1=O` [UPAR-290, Ac-Asp-Leu-[Cys-Arg-Gln-Tyr-Phe-Pro-Ala-Ile-Leu-Cys]-NH2] (Ac-DLCRQYFPAILC-NH2; disulfide 3-12): the Kd in experiment [1] was < 1.58 nM. In addition, the IC50 in experiment [2] is ≤ 10 nM.

As to `CC[C@H](C)[C@@H]1NC(=O)[C@@H](C)NC(=O)[C@@H]2CCCN2C(=O)[C@H](Cc2ccccc2)NC(=O)[C@H](Cc2ccc(O)cc2)NC(=O)[C@H](CCC(N)=O)NC(=O)[C@H](CCCNC(=N)N)NC(=O)[C@@H](NC(=O)[C@H](CC(C)C)NC(=O)CCCCCNC(=O)CN2CCN(CC(=O)O)CCN(CC(=O)O)CCN(CC(=O)O)CC2)CSSC[C@@H](C(N)=O)NC(=O)[C@H](CC(C)C)NC1=O` [UPAR-291, DOTA-Ahx-Leu-[Cys-Arg-Gln-Tyr-Phe-Pro-ala-Ile-Leu-Cys]-NH2] ({DOTA-Ahx}-LCRQYFP[dA]ILC-NH2; disulfide 2-11), the Kd in experiment [1] is < 1.58 nM. Further, in experiment [2], the IC50 is ≤ 10 nM.

Consider `CCCCC(=O)N[C@H]1CSSC[C@@H](CO)NC(=O)[C@H](CCC)NC(=O)[C@H]([C@@H](C)CC)NC(=O)[C@@H]2C[C@@H](O)CN2C(=O)[C@@H]2CCCN2C(=O)[C@H](Cc2ccccc2)NC(=O)[C@H](Cc2ccc(O)cc2)NC(=O)[C@H](CCC(N)=O)NC(=O)[C@H](CCCNC(N)=O)NC1=O` [UPAR-292, Pent-[Cys-Cit-Gln-Tyr-Phe-Pro-Hyp-Ile-Nva-Cysol]-OH] (Pentanoyl-C[Cit]QYFP[Hyp]I[Nva]; linker 1-C via X9), for which, in experiment [1], the Kd was < 1.58 nM. Further, the IC50 in experiment [2] is ≤ 10 nM.

As to `CC[C@H](C)[C@@H]1NC(=O)[C@@H]2C[C@@H](N)CN2C(=O)[C@@H]2CCCN2C(=O)[C@H](Cc2ccccc2)NC(=O)[C@H](Cc2ccc(O)cc2)NC(=O)[C@H](CCC(N)=O)NC(=O)[C@H](CCCNC(N)=O)NC(=O)[C@@H](NC(=O)CCC(C)C)CSSC[C@@H](C(N)=O)NC(=O)[C@H](CC(C)C)NC1=O` [UPAR-295, iHex-[Cys-Cit-Gln-Tyr-Phe-Pro-Tap-Ile-Leu-Cys]-NH2] ({Pentanoyl(4-Me)}-C[Cit]QYFP[Pro(4R-NH2)]ILC-NH2; disulfide 1-10), the Kd in experiment [1] was < 1.58 nM. In addition, the half-maximal inhibitory concentration (IC50) in experiment [2] was ≤ 10 nM.
